Format in all cases: cell-based
One assay has as its system MDA-MB-435 cells. Put plainly: In vitro tumor cell growth inhibition (cytotoxicity assay), breast cancer cell line. As to conditions: MDA-MB-435 breast cancer cells. The method, then:
(§1) Cytotoxicity may be measured using a standard methodology for adherent cell lines such as the microculture tetrazolium assay (MTT). Details of this assay have been published (Alley, M C et al, Cancer Research 48:589-601, 1988). Exponentially growing cultures of tumor cells such as the HT-29 colon carcinoma or LX-1 lung tumor can be used to make microtiter plate cultures. Cells can be seeded at 5000-20,000 cells per well in 96-well plates (in 150 μl of media), and grown overnight at 37° C. Test compounds are added, in 10-fold dilutions varying from 10^−4 M to 10^−10 M.
(§2) Cells are then incubated for 48-72 hours. To determine the number of viable cells in each well, the MTT dye is added (50 μl of 3 mg/ml solution of 3-(4,5-dimethylthiazol-2-yl)-2,5-diphenyltetrazolium bromide in saline). This mixture is incubated at 37° C. for 5 hours, and then 50 μl of 25% SDS, pH 2 is added to each well. After an overnight incubation, the absorbance of each well at 550 mn is read using an ELISA reader. The values for the mean+/−SD of data from quadruplicate wells are calculated, using standard formula as for the %T/C (%viable cells treated/control). Additional methods as described by Inhibition of the growth of tumor cells was determined as described by Patil, S. D., et al J. Med. Chem., 32, 1284 (1989) may be used as well.
(§3) The concentration of test compound which gives a T/C of 50% growth inhibition is designated as the IC50.
(§4) Typically, the cells are grown in RPMI 1640 medium supplemented with 10 nM calcium leucovorin instead of folic acid as the folate source, 10% dialyzed fetal calf serum, penicillin and streptomycin. Additional ingredients may be added depending on the particular needs of the cells being cultured. […]
(§5) Cells are seeded into 96-well plates using a pipeting mechanism such as Perkin-Elmer Pro/pette. […] Inhibition of cell growth may be measured using the MTT dye reduction assay as described above.

Assay [1] concerns CAKI-1 renal cancer cell lines. Kind of assay: In vitro tumor cell growth inhibition (cytotoxicity assay), renal cancer cell line. Particulars: CAKI-1 renal cancer cells. The protocol: as §1, §2, §3, §4, §5
Assay [2] relates to OVCAR-4 ovarian carcinoma cell lines. Put plainly: In vitro tumor cell growth inhibition (cytotoxicity assay), ovarian carcinoma cell line. Particulars: OVCAR-4 ovarian carcinoma cells. The protocol:
as §1, §2, §3, §4, §5

The test system of assay [3] is KM12 colon cancer cell lines. Put plainly: In vitro tumor cell growth inhibition (cytotoxicity assay), colon cancer cell line. Particulars: KM12 colon cancer cells. The protocol:
as §1, §2, §3, §4, §5

[4] abbreviates: Homo sapiens, read-out: LC50 (the source's name).

For the compound `Cl.OCC1OC(NCCNCCNC2OC(CO)C(O)C(O)C2O)C(O)C(O)C1O` [Compound 1, 1,3-N,N-di-β-D-glucopyranosyl-diethylenetriamine], the concentration for 50% growth inhibition (GI50) in the assay on MDA-MB-435 cells (Homo sapiens, read-out: GI50 (inhibited growth by 50%)) is 1.72 µM; in assay [1] (Homo sapiens), 3.1 µM; in assay [2] (Homo sapiens), 1.63 µM; in assay [3] (Homo sapiens), roughly 10 µM. Also, the LC50 with MDA-MB-435 cells (Homo sapiens, read-out: LC50 (lethal concentration to kill 50% of the cells)) was roughly 6 µM. The “Total growth inhibition (TGI)” value in the assay on MDA-MB-435 cells stood at 3.23 µM. Also, the figures for the TGI result in assay [1], in assay [2] and in assay [3] were “about 10 μM”, “about 3.5 μM” and “about 22 μM”, respectively. Also, the CC50 was 30 µM in assay [1] (setting [4]), roughly 7.7 µM in assay [2] (setting [4]) and roughly 48 µM in assay [3] (setting [4]).

The record behind these values is patent US6531454B1, “Glycosylated polyamines and methods of use therefor” (The Regents of the University of California, priority 1999, dated 2003).
